# Columns and labels:
# [1] = tested on: human astrocytes; experiment: Cell viability of human astrocytes; type: cell-based; settings: 25 μM, 48 hr
# Description: Cell viability was determined by using a Cell Counting Kit‐8 (Dojindo, Japan). Briefly, cells were harvested from flasks and plated in 96‐well cell culture plates at 5 × 10^3 per well and cultured overnight. Cells were treated with test reagents for 72 hr. Control cells were treated with cell culture medium and measured at the same time point as treatment groups. CCK‐8 solution (10 μl) was added to each well of the 96‐well plates, and the cultures were incubated for 30 min at 37°C. Absorbance at 450 nm was measured using an automatic microplate reader (Molecular Devices, San Jose, CA, USA).
# Figure 8 Impact of bepridil on human astrocytes (HA) and the Na^+/Ca^2+ exchanger (NCX) isoforms in each cell line. (a) Viability of U87, U251, and SF188 cells and HA after exposure to bepridil (25 μM, 48 hr); n = 5 independent tests in each group. (b) The bands of NCX1, NCX2, and NCX3 isoforms detected by Western blot analysis in the sample of HA and glioblastoma cell lines U87, U118, A172, U251, and SF188. (c) Representative recording of the NCX currents in HA and glioblastoma cell lines. (d) Viability of U87, U251, and SF188 cells and HA after exposure to KB‐R7943 (25 μM, 48 hr). n = 5 independent tests in each group
# [2] = tested on: U87 cells; experiment: Cell cycle assay (PI staining, flow cytometry) of U87 cells; type: cell-based, Human; settings: bepridil 25 μM 6–24 hr, CB‐DMB 3.5 μM 6–24 hr, KB‐R7943 25 μM 18 hr, BAPTA‐AM 10 μM 18 hr, CC‐930 10 μM, PD169316 10 μM 18 hr
# Description: U87 cells were seeded in six‐well plates (Corning, Corning, NY, USA) with 1 × 10^6 cells per well and treated with NCX blockers, BAPTA‐AM, or MAPK inhibitors. Drug treatment was performed by the person who is blinded to the experimental groups. After treatment, cells were harvested in 15‐ml tubes and washed with cold sterile PBS. After being centrifuged, cells were fixed with 70% ethanol […] at 4°C for at least 1 hr. For propidium iodide (PI) staining, cells were washed one time with PBS and then were treated with ribonuclease A (RNase; 100 μg·ml^−1) for 30 min. PI (10 μg·ml^−1) was added, and stained cells were kept in the dark at 4°C until analysis. The number of cells analysed for each sample was 10,000 events. FACS analysis was performed using the Coulter CytoFlexS flow cytometer (Beckman Coulter, CA, USA), and the percentage of cells in the G0/G1, S, and G2/M phases was determined using cell cycle analysis software, ModFit LT 5.0 (Verity Software House, Topsham, ME, USA). For the apoptosis assay, cells were harvested and washed twice with cold PBS and resuspended at a density of 1 × 10^6 cells·ml^−1 in 100 μl of binding buffer containing 5 μl of Annexin V–FITC and 5 μl of PI working solution (100 μg·ml^−1). After incubation at room temperature for 15 min in the dark, 400 μl of binding buffer was added to each sample. Apoptosis was analysed by Coulter CytoFlexS flow cytometer (Beckman Coulter) for at least 10,000 events, and data were analysed with the software, CyExpert 2.0 (Beckman Coulter).
# [3] = tested on: ERK; experiment: Western blot of phosphorylated and total ERK in U87 cells; type: cell-based, Human; settings: 25 μM, 10, 30, 60 and 90 min
# Description: (§1) The total protein concentration of each sample was determined using the BCA Protein Assay Kit (Sangon Biotech, Shanghai, China). Equal protein extracts (45‐μg protein per lane) were separated by SDS‐PAGE and electrophoretically transferred to PVDF membranes (Millipore, Bedford, MA, USA). Then, the membranes were incubated with anti‐phosphorylated and total http://www.guidetopharmacology.org/GRAC/FamilyDisplayForward?familyId=514, http://www.guidetopharmacology.org/GRAC/FamilyDisplayForward?familyId=518, and http://www.guidetopharmacology.org/GRAC/FamilyDisplayForward?familyId=519 antibodies (1:1,000; Cell Signaling Technology) at 4°C overnight, followed by incubation with IRDye 680LT fluorescent secondary antibody (LI‐COR Biosciences, Lincoln, NE, USA). Proteins were visualized using the Odyssey Fc Imaging System (LI‐COR Biosciences, Lincoln, NE, USA). Mouse α‐tubulin antibody was used as protein loading controls. The immuno‐related procedures used comply with the recommendations made by the British Journal of Pharmacology (Alexander et al., 2018).
# [4] = tested on: p38‐MAPK; experiment: Western blot of phosphorylated and total p38-MAPK in U87 cells; type: cell-based, Human; settings: 25 μM, 10, 30, 60 and 90 min
# Description: as §1, with “After treatment with bepridil for 0, 30, 60, and 90 min, cells were collected and lysed in RIPA buffer (Beyotime, Nanjing, China) supplemented with protease inhibitor (Beyotime). The total” for “The total”
Compound,Cytotoxicity in human astrocytes (viability) [1],"Effect on cell cycle distribution, compound alone [2]",Effect on ERK activity [3],Effect on p38-MAPK activity [4]
"CC(C)COCC(CN(Cc1ccccc1)c1ccccc1)N1CCCC1 (stereo not drawn) [Bepridil, N‐benzyl‐N‐(3‐isobutoxy‐2‐pyrrolidin‐1‐yl‐propyl)aniline]",did not generate apparent cytotoxicity,reduced the cell fraction in S phase and increased cells in G0/G1 phase in a time‐dependent manner,not affected,activated
"CS(=O)(=O)O.N=C(N)SCCc1ccc(OCc2ccc([N+](=O)[O-])cc2)cc1 [KB‐R7943, 2‐[4‐[(4‐nitrophenyl)methoxy]phenyl]ethyl ester carbamimidothioic acid methanesulfonate]",deleterious to astrocytes,caused G0/G1 arrest and apoptosis,–,–
